This is an account of results in patent publication US6103732A, “Carboxylic acid derivatives, their production and use” (BASF Aktiengesellschaft, priority 1996, dated 2000).

Like-named read-outs stand apart in the source and are kept apart here.

One assay deals with T1, human ETA receptor (Homo sapiens, UniProt P25101).
T1 construct: expressed in transfected cells; host or cells: CHO cells
T1 sequence (P25101 21-427): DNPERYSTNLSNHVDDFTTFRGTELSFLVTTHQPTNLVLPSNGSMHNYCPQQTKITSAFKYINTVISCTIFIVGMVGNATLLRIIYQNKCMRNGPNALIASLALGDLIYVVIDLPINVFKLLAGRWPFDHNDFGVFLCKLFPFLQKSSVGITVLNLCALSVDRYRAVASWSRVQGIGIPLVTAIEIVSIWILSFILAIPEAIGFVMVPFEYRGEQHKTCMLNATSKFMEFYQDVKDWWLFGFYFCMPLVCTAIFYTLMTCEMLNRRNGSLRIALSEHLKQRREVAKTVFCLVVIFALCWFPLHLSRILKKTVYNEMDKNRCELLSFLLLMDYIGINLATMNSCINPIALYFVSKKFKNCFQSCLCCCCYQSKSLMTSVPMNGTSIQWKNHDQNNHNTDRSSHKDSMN
The experiment in a line: Receptor binding assay, ETA ([125I]-ET1, membranes of ETA receptor-expressing CHO cells). The protocol: (§1) Cloned human ETA receptor-expressing CHO cells and guinea pig cerebellar membranes with >60% ETB compared with ETA receptors were used for binding studies.
The ETA receptor-expressing CHO cells were grown in F12 medium containing 10% fetal calf serum, 1% glutamine, 100 E/ml penicillin and 0.2% streptomycin (Gibco BRL, Gaithersburg, Md., USA). After 48 h, the cells were washed with PBS and incubated with 0.05% trypsin-containing PBS for 5 min. Neutralization was then carried out with F12 medium and the cells were collected by centrifugation at 300×g. To lyse the cells, the pellet was briefly washed with lysis buffer (5 mM tris-HCl, pH 7.4 with 10% glycerol) and then incubated at a concentration of 10^7 cells/ml of lysis buffer at 4° C. for 30 min. The membranes were centrifuged at 20,000×g for 10 min, and the pellet was stored in liquid nitrogen.
(§2) The nonspecific binding was determined with 10^-7 M ET1. After 30 min, filtration was carried out through GF/B glass fiber filters (Whatman, England) in a Skatron cell collector (Skatron, Lier, Norway) to separate free and bound radioligands, and the filters were washed with ice-cold tris-HCl buffer, pH 7.4 with 0.2% BSA. The radioactivity collected on the filters was quantified using a Packard 2200 CA liquid scintillation counter.

Another assay addresses T2, ETB receptor (Cavia porcellus, UniProt H0VTF3).
T2 construct: Guinea pig cerebella were homogenized in a Potter-Elvejhem homogenizer; from tissue; host or cells: guinea pig cerebellum (membranes)
T2 sequence (H0VTF3 27-415): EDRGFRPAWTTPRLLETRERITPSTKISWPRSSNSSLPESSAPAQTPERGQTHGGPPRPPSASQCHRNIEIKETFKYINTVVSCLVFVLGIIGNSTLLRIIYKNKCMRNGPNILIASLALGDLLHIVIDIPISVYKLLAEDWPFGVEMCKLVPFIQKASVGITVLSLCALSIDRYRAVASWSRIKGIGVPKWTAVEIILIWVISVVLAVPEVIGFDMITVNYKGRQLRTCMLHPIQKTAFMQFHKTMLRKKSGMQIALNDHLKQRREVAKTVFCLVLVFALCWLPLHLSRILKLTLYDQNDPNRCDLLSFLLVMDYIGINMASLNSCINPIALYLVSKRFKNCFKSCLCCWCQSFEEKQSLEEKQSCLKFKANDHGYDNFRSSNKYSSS
The experiment in a line: Receptor binding assay, ETB ([125I]-RZ3, guinea pig cerebellar membranes). The procedure: as §1
Guinea pig cerebella were homogenized in a Potter-Elvejhem homogenizer and were obtained by differential centrifugation at 1,000×g for 10 min and repeated centrifugation of the supernatent at 20,000×g for 10 min.
as §2

[1] abbreviates: cloned human ETA receptor-expressing CHO cell membranes, 25 pM [125I]-ET1, 30 min, read-out: Receptor binding data (Ki values) ETA.
[2] abbreviates: guinea pig cerebellar membranes (>60% ETB compared with ETA receptors), 25 pM [125I]-RZ3, 30 min, read-out: Receptor binding data (Ki values) ETB.

Usually Ki stands for the dissociation constant of the complex between target and ligand, obtained from inhibition or displacement. Regarding `COC(c1ccccc1)(c1ccccc1)C(Oc1ccc2ccccc2n1)C(=O)O` (centres unmarked) [Compound I-167], the Ki at human ETA receptor (setting [1]) was 3 µM; at ETB receptor (setting [2]), above 7 µM.
For `COC(c1ccccc1)(c1ccccc1)C(Oc1cc(C(F)(F)F)nc(C(C)(C)C)n1)C(=O)O` (centres unmarked) [Compound I-91, 2-(2-tert-Butyl-6-trifluoromethyl-4-pyrimidinyloxy)-3-methoxy-3,3-diphenylpropionic acid], the figures for the inhibition constant (Ki) at human ETA receptor (setting [1]) and on ETB receptor (setting [2]) were 3.3 µM and above 10 µM, respectively.
Take `COC(c1ccccc1)(c1ccccc1)C(Oc1cc(C)c2ccccc2n1)C(=O)O` (centres unmarked) [Compound I-166, 2-(4-Methyl-2-quinolinyloxy)-3-methoxy-3,3-diphenylpropionic acid]: the Ki turned out to be 0.5 µM at human ETA receptor (setting [1]) and 4 µM on ETB receptor (setting [2]).
Turning to `COc1cc(OC(C(=O)O)C(OC)(c2ccccc2)c2ccccc2)nc(OC)n1` (centres unmarked) [Compound I-1, 2-(2,6-Dimethoxy-4-pyrimidinyloxy)-3-methoxy-3,3-diphenyl-propionic acid], the inhibition constant Ki amounted to 0.038 µM at human ETA receptor and 8 µM on ETB receptor.
